# Results taken from patent publication US20250145598A1, “ACID CERAMIDASE INHIBITORS AND USES THEREOF” (The Regents of the University of California, priority 2021, published 2025).
# pIC50: −log10 of the molar value.
# Target: T1, Acid ceramidase (Homo sapiens, UniProt Q13510)
# T1 sequence (Q13510 22-395): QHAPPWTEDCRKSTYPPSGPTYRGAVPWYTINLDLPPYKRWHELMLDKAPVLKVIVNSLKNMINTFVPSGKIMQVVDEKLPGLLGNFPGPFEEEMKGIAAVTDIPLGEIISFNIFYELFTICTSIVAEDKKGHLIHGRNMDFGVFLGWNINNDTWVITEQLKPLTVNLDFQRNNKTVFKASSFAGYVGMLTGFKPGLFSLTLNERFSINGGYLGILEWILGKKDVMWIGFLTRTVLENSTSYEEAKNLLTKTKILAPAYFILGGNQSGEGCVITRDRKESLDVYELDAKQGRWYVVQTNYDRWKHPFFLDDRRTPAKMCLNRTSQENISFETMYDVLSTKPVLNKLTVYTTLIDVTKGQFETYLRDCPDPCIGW
# Assay: Acid ceramidase assay (AC in vitro IC50)
# Format: biochemical
# Details: Acid ceramidase assay data of example compounds
smiles,measurement,value
"CS(=O)(=O)c1ccc(C(CO)Oc2ccc(-c3cn(C(=O)NCC4CCN(c5ccccc5)C4)cn3)cc2)cc1 (stereo not drawn) [AC2020601-0428, 4-(4-(2-hydroxy-1-(4-(methylsulfonyl)phenyl)ethoxy)phenyl)-N-((1-phenylpyrrolidin-3-yl)methyl)-1H-imidazole-1-carboxamide]",pIC50,> 6.52
"CCS(=O)(=O)c1ccc(COc2ccc(-c3cn(C(=O)NCC4CCN(c5ccccc5)C4)cn3)cc2)c(C#N)c1 (stereo not drawn) [AC2020601-0430, 4-(4-((2-cyano-4-(ethylsulfonyl)benzyl)oxy)phenyl)-N-((1-phenylpyrrolidin-3-yl)methyl)-1H-imidazole-1-carboxamide]",pIC50,> 6.52
"CCS(=O)(=O)c1ccc(COc2ccc(-c3cn(C(=O)NCC4CCN(c5ccccc5)C4)cn3)cc2)c(C(N)=O)c1 (stereo not drawn) [AC2020601-0431, 4-(4-(2-carbamoyl-4-(ethylsulfonyl)benzyloxy)phenyl)-N-((1-phenylpyrrolidin-3-yl)methyl)-1H-imidazole-1-carboxamide]",pIC50,> 6.52
"CN1CCN(c2cccc(COc3ccc(-c4cn(C(=O)NCC5CCN(c6ccccc6)C5)cn4)cc3)c2)CC1=O (stereo not drawn) [AC2020601-0434, 4-(4-(3-(4-methyl-3-oxopiperazin-1-yl)benzyloxy)phenyl)-N-((1-phenylpyrrolidin-3-yl)methyl)-1H-imidazole-1-carboxamide]",pIC50,> 6.52
"O=C(Nc1ccc(COc2ccc(-c3cn(C(=O)NCC4CCN(c5ccccc5)C4)cn3)cc2)cc1)C1CC1 (stereo not drawn) [AC2020601-0437, 4-(4-((4-(cyclopropanecarboxamido)benzyl)oxy)phenyl)-N-((1-phenylpyrrolidin-3-yl)methyl)-1H-imidazole-1-carboxamide]",pIC50,> 6.52
"NC(=O)c1cccnc1COc1ccc(-c2cn(C(=O)NCC3CCN(c4ccccc4)C3)cn2)cc1 (stereo not drawn) [AC2020601-0438, 2-((4-(1-(((1-phenylpyrrolidin-3-yl)methyl)carbamoyl)-1H-imidazol-4-yl)phenoxy)methyl)nicotinamide]",pIC50,> 6.52
"O=C(NCC1CCN(c2ccccc2)C1)n1cnc(-c2ccc(OC3CCc4cc(F)ccc43)cc2)c1 (stereo not drawn) [AC2020601-0439, 4-(4-((5-fluoro-2,3-dihydro-1H-inden-1-yl)oxy)phenyl)-N-((1-phenylpyrrolidin-3-yl)methyl)-1H-imidazole-1-carboxamide]",pIC50,> 6.52
"CS(=O)(=O)c1ccc(COc2ccc(-c3cn(C(=O)NCC4CC(=O)N(c5ccccc5)C4)cn3)cc2)cc1 (stereo not drawn) [AC2020601-0443, 4-(4-((4-(methylsulfonyl)benzyl)oxy)phenyl)-N-((5-oxo-1-phenylpyrrolidin-3-yl)methyl)-1H-imidazole-1-carboxamide]",pIC50,> 6.52
"CS(=O)(=O)c1ccc(COc2ccc(-c3cn(C(=O)NCC4CCN(c5ccccc5)C4)cn3)cc2)cn1 (stereo not drawn) [AC2020601-0444, 4-(4-((6-(methylsulfonyl)pyridin-3-yl)methoxy)phenyl)-N-((1-phenylpyrrolidin-3-yl)methyl)-1H-imidazole-1-carboxamide]",pIC50,> 6.52
"CS(=O)(=O)c1ccc(COc2ccc(-c3cn(C(=O)NCC4CCN(c5ccccc5)C4)cn3)cc2)nc1 (stereo not drawn) [AC2020601-0445, 4-(4-((5-(methylsulfonyl)pyridin-2-yl)methoxy)phenyl)-N-((1-phenylpyrrolidin-3-yl)methyl)-1H-imidazole-1-carboxamide]",pIC50,> 6.52
"Cn1cnc(COc2ccc(-c3cn(C(=O)NCC4CCN(c5ccccc5)C4)cn3)cc2)n1 (stereo not drawn) [AC2020601-0447, 4-(4-((1-methyl-1H-1,2,4-triazol-3-yl)methoxy)phenyl)-N-((1-phenylpyrrolidin-3-yl)methyl)-1H-imidazole-1-carboxamide]",pIC50,> 6.52
"CC(C)n1ccc(COc2ccc(-c3cn(C(=O)NCC4CCN(c5ccccc5)C4)cn3)cc2)n1 (stereo not drawn) [AC2020601-0448, 4-(4-((1-isopropyl-1H-pyrazol-3-yl)methoxy)phenyl)-N-((1-phenylpyrrolidin-3-yl)methyl)-1H-imidazole-1-carboxamide]",pIC50,> 6.52
"CN1CCN(c2cccc(COc3ccc(-c4cn(C(=O)NCC5CN(c6ccccc6)C5)cn4)cc3)c2)CC1=O [AC2020601-0449, 4-(4-(3-(4-methyl-3-oxopiperazin-1-yl)benzyloxy)phenyl)-N-((1-phenylazetidin-3-yl)methyl)-1H-imidazole-1-carboxamide]",pIC50,> 6.52
"N#Cc1cccnc1COc1ccc(-c2cn(C(=O)NCC3CCN(c4ccccc4)C3)cn2)cc1 (stereo not drawn) [AC2020601-0451, 4-(4-((3-cyanopyridin-2-yl)methoxy)phenyl)-N-((1-phenylpyrrolidin-3-yl)methyl)-1H-imidazole-1-carboxamide]",pIC50,> 6.52
"CS(=N)(=O)c1ccc(COc2ccc(-c3cn(C(=O)NCC4CCN(c5ccccc5)C4)cn3)cc2)cc1 (stereo not drawn) [AC2020601-0452, 4-(4-((4-(S-methylsulfonimidoyl)benzyl)oxy)phenyl)-N-((1-phenylpyrrolidin-3-yl)methyl)-1H-imidazole-1-carboxamide]",pIC50,> 6.52
"CS(=O)(=O)c1ccc(COc2ccccc2-c2cn(C(=O)NCC3CN(c4ccccc4)C3)cn2)cc1 [AC2020601-0456, 4-(2-(4-(methylsulfonyl)benzyloxy)phenyl)-N-((1-phenylazetidin-3-yl)methyl)-1H-imidazole-1-carboxamide]",pIC50,> 6.52
"O=C(NCC1CCN(c2ccccc2)C1)n1cnc(-c2ccc(OCc3cccnn3)cc2)c1 (stereo not drawn) [AC2020601-0472, N-((1-phenylpyrrolidin-3-yl)methyl)-4-(4-(pyridazin-3-ylmethoxy)phenyl)-1H-imidazole-1-carboxamide]",pIC50,> 6.52
"CS(=O)(=O)c1ncc(COc2ccc(-c3cn(C(=O)NCC4CCN(c5ccccc5)C4)cn3)cc2)cn1 (stereo not drawn) [AC2020601-0477, 4-(4-((2-(methylsulfonyl)pyrimidin-5-yl)methoxy)phenyl)-N-((1-phenylpyrrolidin-3-yl)methyl)-1H-imidazole-1-carboxamide]",pIC50,> 6.52
"CC(C)n1cncc1COc1ccc(-c2cn(C(=O)NCC3CCN(c4ccccc4)C3)cn2)cc1 (stereo not drawn) [AC2020601-0478, 4-(4-((1-isopropyl-1H-imidazol-5-yl)methoxy)phenyl)-N-((1-phenylpyrrolidin-3-yl)methyl)-1H-imidazole-1-carboxamide]",pIC50,> 6.52
"Cn1nc(C(F)(F)F)cc1COc1ccc(-c2cn(C(=O)NCC3CCN(c4ccccc4)C3)cn2)cc1 (stereo not drawn) [AC2020601-0481, 4-(4-((1-methyl-3-(trifluoromethyl)-1H-pyrazol-5-yl)methoxy)phenyl)-N-((1-phenylpyrrolidin-3-yl)methyl)-1H-imidazole-1-carboxamide]",pIC50,> 6.52
"CCS(=O)(=O)c1ccc(COc2ccc(-c3cn(C(=O)NCC4CCN(c5ccccc5)C4)cn3)cc2)nn1 (stereo not drawn) [AC2020601-0482, 4-(4-((6-(ethylsulfonyl)pyridazin-3-yl)methoxy)phenyl)-N-((1-phenylpyrrolidin-3-yl)methyl)-1H-imidazole-1-carboxamide]",pIC50,> 6.52
"Cn1ncc(COc2ccc(-c3cn(C(=O)NCC4CCN(c5ccccc5)C4)cn3)cc2)n1 (stereo not drawn) [AC2020601-0488, 4-(4-((2-methyl-2H-1,2,3-triazol-4-yl)methoxy)phenyl)-N-((1-phenylpyrrolidin-3-yl)methyl)-1H-imidazole-1-carboxamide]",pIC50,> 6.52
"Cn1cc(COc2ccc(-c3cn(C(=O)NCC4CCN(c5ccccc5)C4)cn3)cc2)nn1 (stereo not drawn) [AC2020601-0489, 4-(4-((1-methyl-1H-1,2,3-triazol-4-yl)methoxy)phenyl)-N-((1-phenylpyrrolidin-3-yl)methyl)-1H-imidazole-1-carboxamide]",pIC50,> 6.52
"Cc1nnc(COc2ccc(-c3cn(C(=O)NCC4CCN(c5ccccc5)C4)cn3)cc2)o1 (stereo not drawn) [AC2020601-0491, 4-(4-((5-methyl-1,3,4-oxadiazol-2-yl)methoxy)phenyl)-N-((1-phenylpyrrolidin-3-yl)methyl)-1H-imidazole-1-carboxamide]",pIC50,> 6.52
"CS(=O)(=O)c1ccc(COc2ccc(-c3cn(C(=O)NCC4CCN(c5cccc(C#N)c5)C4)cn3)cc2)cc1 (stereo not drawn) [AC2020601-0494, N-((1-(3-cyanophenyl)pyrrolidin-3-yl)methyl)-4-(4-(4-(methylsulfonyl)benzyloxy)phenyl)-1H-imidazole-1-carboxamide]",pIC50,> 6.52
"CS(=O)(=O)c1ccc(COc2ccc(-c3cn(C(=O)NCC4CCN(c5cc(F)ccc5F)C4)cn3)cc2)cc1 (stereo not drawn) [AC2020601-0496, N-((1-(2,5-difluorophenyl)pyrrolidin-3-yl)methyl)-4-(4-(4-(methylsulfonyl)benzyloxy)phenyl)-1H-imidazole-1-carboxamide]",pIC50,> 6.52
"CS(=O)(=O)c1ccc(COc2ccc(-c3cn(C(=O)NCC4CCN(c5ccc(F)cn5)C4)cn3)cc2)cc1 (stereo not drawn) [AC2020601-0497, N-((1-(5-fluoropyridin-2-yl)pyrrolidin-3-yl)methyl)-4-(4-((4-(methylsulfonyl)benzyl)oxy)phenyl)-1H-imidazole-1-carboxamide]",pIC50,> 6.52
"CS(=O)(=O)c1ccc(COc2ccc(-c3cn(C(=O)NCC4CCN(c5cccc(C(F)(F)F)c5)C4)cn3)cc2)cc1 (stereo not drawn) [AC2020601-0498, 4-(4-((4-(methylsulfonyl)benzyl)oxy)phenyl)-N-((1-(3-(trifluoromethyl)phenyl)pyrrolidin-3-yl)methyl)-1H-imidazole-1-carboxamide]",pIC50,> 6.52
"Cc1ncc(N2CCC(CNC(=O)n3cnc(-c4ccc(OCc5ccc(S(C)(=O)=O)cc5)cc4)c3)C2)s1 (stereo not drawn) [AC2020601-0499, 4-(4-((4-(methylsulfonyl)benzyl)oxy)phenyl)-N-((1-(2-methylthiazol-5-yl)pyrrolidin-3-yl)methyl)-1H-imidazole-1-carboxamide]",pIC50,> 6.52
"CS(=O)(=O)c1ccc(C(=O)Oc2ccc(-c3cn(C(=O)NCC4CCN(c5ccccc5)C4)cn3)cc2)cc1 (stereo not drawn) [AC2020601-0501, 4-(1-((1-phenylpyrrolidin-3-yl)methylcarbamoyl)-1H-imidazol-4-yl)phenyl 4-(methylsulfonyl)benzoate]",pIC50,> 6.52
